Measured values published in patent US6579849B2, “Antibiotic peptides from bovine milk” (HaemoPep Pharma GmbH, priority 1998, dated 2003).
Read-outs that look alike come from different tables or passages of the source.

What was measured:
bacteria = assay: Antibacterial / antimicrobial effect of comparison peptides; assay type: cell-based
B. subtilis = assay: Preincubation experiment (determination of CFU); assay type: cell-based; conditions: incubated at 37° C. for 120 min, interpolated from FIG. 3
Experimental: (§1) Exponentially grown bacteria with a density corresponding to an A600 of 0.4 to 0.6, were initially diluted 1:10^5 in 10 mM phosphate buffer (Na—P, pH 7.2) or phosphate buffered saline (PBS, pH 7.4) and incubated at 37° C. for 120 min in Na—P or PBS supplemented with different concentrations of peptides. After this period the reaction mixtures were diluted 1:10 and 1:100 in the same buffer and plated on LB-Agar to determine the colony forming units (CFU). The plating were done in triplets. The colonies were counted with a colony counter (Darkfield, Quebec, Canada).
(§2) An example for the depletion of viable bacteria gives FIG. 2 showing that a time dependent killing of the bacteria during incubation occurs. The interpolation of the date gives the following order of sensitivity of the used strains B. subtilis>S. carnosus=S. epidermidis>Rhodotorula >>E. coli>Enterococcus faecium ATCC 35667. The concentration necessary to reduce the colony forming units (CFU) to 50% of the initial CFU ranges from 180 μg/ml (E. faecium) over 20 μg/ml (E. coli, S. carnosus, R. rubra) to 1 μg/ml for B. subtilis indicating a potent inhibitory effect of the used peptide.

E. coli = assay: Preincubation experiment (determination of CFU); assay type: cell-based; conditions: incubated at 37° C. for 120 min, interpolated from FIG. 3
Experimental: as §1, §2

[1] = system: Enterococcus faecium ATCC 35667; assay: Preincubation experiment (determination of CFU); assay type: cell-based; conditions: E. faecium; incubated at 37° C. for 120 min; interpolated from FIG. 3
Experimental: as §1, §2

S. carnosus [2] = assay: Preincubation experiment (determination of CFU); assay type: cell-based, Staphylococcus carnosus; conditions: incubated at 37° C. for 120 min, interpolated from FIG. 3
Experimental: as §1, §2

R. rubra = assay: Preincubation experiment (determination of CFU); assay type: cell-based, Rhodotorula rubra; conditions: incubated at 37° C. for 120 min, interpolated from FIG. 3
Experimental: as §1, §2

S. carnosus [3] = assay type: cell-based, Staphylococcus carnosus
Experimental: To determine the minimal inhibitory concentration of casocidin-I under the influence of the medium strength or in the presence of bivalent cations, a dilution assay was performed in 96-well cell culture clusters. After diluting the peptide in 50 μl medium (tryptic soy broth, Sigma, Germany) with adjusted pH 7.2, ion concentrations or medium strength on one plate, the same amount of medium with appr. 2-4*10^3 bacteria in 50 μl medium were added to the diluted samples. The incubations were done overnight at 37° C. The minimal inhibitory concentration was manually read using a microscope.

[4] = Storage of lyophilized peptide; assay type: physicochemical; conditions: room temperature
[5] = system: E. coli transformed with the plasmid pUC18; assay: Membrane permeabilization, release of beta-galactosidase and beta-lactamase; assay type: cell-based; conditions: 37° C. for 30 min, FIG. 5
Experimental: The beta-galactosidase indicated the degree of the permeabilization of the inner membrane (IM) of E. coli. The permeabilization of the outer membrane was monitored by determination of released beta-Lactamase (plasmid coded) mainly present in the periplasmatic space.
To measure the relative release of beta-galactosidase a suspension of E. coli grown overnight in LB medium was washed once in phosphate buffer (10 mM, pH 7.0). Afterwards the bacteria were resuspended to a final density of app. 0.5 A600. Peptide fractions were lyophilized in 1.5 ml tubes in a speed vac concentrator and solved in 40 μl phosphate buffer. To the peptide solution a volume of 200 μl bacterial suspension was added and the incubation was performed at 37° C. for 30 min. As a control, to determine the maximum of the enzyme release, bacteria were disrupted by ultrasonic treatment (about 100 joules in 10 sec). […] The absorbance of the samples at 405 nm was measured and the increase of each absorbance was normalized to the sonified sample assuming enzymatic release of 100%.
To detect the release of beta-lactamase the supernatants of E. coli were prepared as described for the beta-galactosi-dase. […] The samples were incubated for 45 min at 37° C. in the dark and the absorbance was measured at a wavelength of 700 nm and the normalization was done with the results gained with sonified samples.

| Molecule | antibacterial / antimicrobial effect (bacteria) | concentration necessary to reduce the colony forming units (CFU) to 50% of the initial CFU (B. subtilis) | concentration necessary to reduce the colony forming units (CFU) to 50% of the initial CFU (E. coli) | concentration necessary to reduce the colony forming units (CFU) to 50% of the initial CFU [1] | concentration necessary to reduce the colony forming units (CFU) to 50% of the initial CFU (S. carnosus [2]) | concentration necessary to reduce the colony forming units (CFU) to 50% of the initial CFU (R. rubra) | MIC (S. carnosus [3]; bivalent cation 2.5 mM Ca) | MIC (S. carnosus [3]; bivalent cation 2.5 mM Mn) | MIC (S. carnosus [3]; medium strength 1 (tryptic soy broth, pH 7.2)) | potency when lyophilized, storage [4] | mechanism of action: release of intracellular enzymes beta-galactosidase and beta-lactamase [5] |
| --- | --- | --- | --- | --- | --- | --- | --- | --- | --- | --- | --- |
| QRYQ | not sufficient to gain antimicrobial properties |  |  |  |  |  |  |  |  |  |  |
| CC[C@H](C)[C@H](NC(=O)[C@H](CCCCN)NC(=O)[C@H](CCCCN)NC(=O)[C@H](CC(C)C)NC(=O)[C@H](Cc1ccccc1)NC(=O)[C@H](CC(N)=O)NC(=O)[C@H](CC(C)C)NC(=O)[C@H](CCCNC(=N)N)NC(=O)[C@H](CC(N)=O)NC(=O)[C@H](CCCCN)NC(=O)[C@H](CCC(=O)O)NC(=O)[C@H](CCC(=O)O)NC(=O)[C@H](CCC(=O)O)NC(=O)[C@@H](NC(=O)[C@H](CC(C)C)NC(=O)[C@H](CCCCN)NC(=O)[C@@H](NC(=O)[C@@H](N)CCCCN)[C@@H](C)O)[C@@H](C)O)C(=O)N[C@@H](CO)C(=O)N[C@@H](CCC(N)=O)C(=O)N[C@@H](CCCNC(=N)N)C(=O)N[C@@H](Cc1ccc(O)cc1)C(=O)N[C@@H](CCC(N)=O)C(=O)N[C@@H](CCCCN)C(=O)N[C@@H](Cc1ccccc1)C(=O)N[C@@H](C)C(=O)N[C@@H](CC(C)C)C(=O)N1CCC[C@H]1C(=O)N[C@@H](CCC(N)=O)C(=O)N[C@@H](Cc1ccc(O)cc1)C(=O)N[C@@H](CC(C)C)C(=O)N[C@@H](CCCCN)C(=O)N[C@H](C(=O)N[C@H](C(=O)N[C@@H](Cc1ccc(O)cc1)C(=O)N[C@@H](CCC(N)=O)C(=O)N[C@@H](Cc1c[nH]cn1)C(=O)N[C@@H](CCC(N)=O)C(=O)N[C@@H](CCCCN)C(=O)O)C(C)C)[C@@H](C)O [casocidin-I] |  | 1 µg/mL | 20 µg/mL | 180 µg/mL | 20 µg/mL | 20 µg/mL | no | no | no | keeps its potency when lyophilized | membrane permeabilizing effect |
